Drawing on PubChem BioAssay (NCI), this text covers TGI for 9 molecules.

Structures are written as SMILES.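 Where inhibition never reached the appropriate level, the endpoint shown equals the highest concentration tested. Otherwise, values were interpolated linearly from a five-concentration, 48-hour dose response in 96-well plates. TGI denotes the concentration required for complete inhibition of growth.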 Where only a bound is given, the exact number is not on record here.

Among the test systems are MDA-N; P388 leukemia; P388/ADR leukemia; SN12K1 renal; XF 498 CNS.
Test in all cases: NCI tumour cell line growth inhibition, 48 h

For `Nc1nncs1`, the TGI in the experiment with MDA-N is greater than 5000 µM; with P388 leukemia, 2670 µM; in the experiment on P388/ADR leukemia, 2820 µM; in the experiment with SN12K1 renal, greater than 5000 µM; in the experiment on XF 498 CNS, 3890 µM. Consider `O=C(O)C(Br)Cc1ccc2c(c1)OCO2` (stereo not drawn), for which, in the experiment on XF 498 CNS, the TGI was 89.3 µM. In the case of `NC(=O)c1cc(C2OC(CO)C(O)C2O)nn1-c1ccc([N+](=O)[O-])cc1` (stereo not drawn), in the experiment on XF 498 CNS, the TGI was greater than 100 µM. The molecule `CC1(C)N=C(N)N=C(N)N1c1cccc(OCc2cccc([N+](=O)[O-])c2)c1` yielded a TGI with MDA-N greater than 100 µM. As to `O=C1c2ccccc2C(=O)c2c(O)c(O)cc(O)c21`, the TGI in the experiment on XF 498 CNS turned out to be 86.3 µM. `O=C(O)Cc1[nH]cnc1C(=O)O` yielded a TGI in the experiment on MDA-N greater than 100 µM.

In the experiment with MDA-N, `COC1/C=C\OC2(C)Oc3c(C)c(O)c4c(O)c(c(CN(C)C)c(O)c4c3C2=O)NC(=O)/C(C)=C\C=C/C(C)C(O)C(C)C(O)C(C)C(OC(C)=O)C1C` (stereo not drawn) displayed a TGI greater than 100 µM. As to `COc1ccc(/C(Cl)=C(\C=O)c2ccc(Cl)c(Cl)c2)cc1OC`, in the experiment on XF 498 CNS, the TGI was 7.95 µM.

The molecule `COC(=O)c1nc2c3c(cccc3c1C(=O)OC)Nc1ccccc1-2` gave a TGI in the experiment with MDA-N greater than 100 µM.
